Measurements reported in patent US10006009B2, “Codon-optimized gene for mutated shrimp luciferase and method for use thereof” (JNC CORPORATION, priority 2013, dated 2018).
Entries after “also recorded” stand apart in the source; their conditions may differ.

Experiments:
Format in all cases: biochemical
[1] = molecular target: T1, codon-optimized nanoKAZ domain protein (Oplophorus gracilirostris, UniProt Q9GV45, A31E/A60N/A81I/F95D/I117V/K70R/L54V/L99Q/M102K/N193R/P142E/Q151K/Q38R/Q45L/V71I/Y165I); assay: Substrate specificity and luminescence pattern of nanoKAZ secreted into culture medium; settings: for luminescence pattern: FIG. 4; for Relative luminescence activity integrated (1 min) / Relative maximum luminescence intensity (Imax): culture medium with secreted nanoKAZ as enzyme, coelenterazine = 1.0
T1 construct: expressed in transfected cells; host or cells: CHO-K1, HeLa or COS-1 cells transfected with pcDNA3-nanoKAZ or pcDNA3-GLsp-nanoKAZ
T1 sequence (Q9GV45 28-196 with tags or gaps with the stated changes limits assumed): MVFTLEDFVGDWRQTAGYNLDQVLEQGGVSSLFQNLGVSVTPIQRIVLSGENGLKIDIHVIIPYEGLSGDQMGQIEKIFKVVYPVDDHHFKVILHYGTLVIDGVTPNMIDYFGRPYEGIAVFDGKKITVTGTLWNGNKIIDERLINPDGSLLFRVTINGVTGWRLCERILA
Procedure: The luminescence reaction was started by addition of 5 μL of the enzyme solution for assay obtained in EXAMPLE 3 to 100 μL of 50 mM Tris-HCl (pH 7.6)-10 mM EDTA (Wako Pure Chemical Industries, Ltd.) containing 0.5 μg of coelenterazine (manufactured by JNC Corp.). The luminescence activity was measured for 60 seconds with a luminometer (manufactured by Atto Co.: AB2200). The maximum intensity of luminescence (Imax) and the luminescence activity integrated for 60 seconds were represented as relative light units (rlu). On the other hand, the luminescence activity of firefly luciferase was used as an internal standard to confirm the efficiency of transfection. Five microliters of the enzyme solution for assay obtained in EXAMPLE 3 was added to 100 μL of the enzyme assay solution (manufactured by Promega Corp.) to start the luminescence reaction. The luminescence activity was measured with a luminometer (manufactured by Atto Co.: AB2200) by integration of luminescence for 10 seconds, which was shown as relative light units (rlu). […] While the transfection efficiencies vary in depending upon cell types, the transfection efficiencies of pcDNA3-nanoKAZ and pcDNA3-GLsp-nanoKAZ are almost the same. The results obtained by measuring the luminescence activity of CHO-K1 cells, HeLa cells and COS-1 cells in culture medium and cells are shown in TABLE 4. Evidently, pcDNA3-nanoKAZ without a signal peptide sequence for secretion was secreted comparably or more efficiently than pcDNA3-GLsp-nanoKAZ.
Coelenterazine analogues used in the substrate specificity experiments were synthesized by the methods described in the respective papers. More specifically, bis-coelenterazine, furimazine and C2-coelenterazine analogue were synthesized by the methods described in Nakamura et al. (1997) Tetrahedron Lett. 38:6405-6406, Hall et al. (2012) ACS Chem. Biol. […] and Inouye et al. (2010) Anal. Biochem. 407: 247-252, respectively. Using as an enzyme solution for coelenterazine or its analogues the culture medium, into which nanoKAZ was secreted as described in EXAMPLE 4, the luminescence activity was measured. Among coelenterazine analogues, the relative maximum intensity of luminescence for h-, bis-, 3me- and 3meo-coelenterazines was at least 10-fold higher and the relative luminescence activity integrated for 1 minute of h- and bis-coelenterazines was at least 10-fold higher, than the others. These luminescence patterns are illustrated in FIG. 4.

[2] = molecular target: T2, purified codon-optimized nanoKAZ domain protein (Oplophorus gracilirostris, UniProt Q9GV45, A31E/A60N/A81I/F95D/I117V/K70R/L54V/L99Q/M102K/N193R/P142E/Q151K/Q38R/Q45L/V71I/Y165I); assay: Substrate specificity of purified nanoKAZ; settings: purified nanoKAZ 0.03 μg, 1 μg substrate, coelenterazine = 1.0
T2 construct: histidine tag (6 His) (N, cleaved yes); ZZ domain (N, cleaved yes); made in house; host or cells: Escherichia coli BL21
T2 sequence (Q9GV45 other isoform, or with tags, fused parts or gaps with the stated changes): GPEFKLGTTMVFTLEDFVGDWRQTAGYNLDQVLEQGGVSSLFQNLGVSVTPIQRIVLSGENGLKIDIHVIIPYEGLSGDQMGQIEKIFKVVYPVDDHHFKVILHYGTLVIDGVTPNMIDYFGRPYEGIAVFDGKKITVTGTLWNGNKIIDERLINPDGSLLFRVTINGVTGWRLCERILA
Procedure: The luminescence reaction was started by addition of 5 μl (0.03 μg) of the purified enzyme solution obtained in EXAMPLE 7 to 100 μl of 50 mM Tris-HCl (pH 7.6)-10 mM EDTA (Wako Pure Chemical Industries, Ltd.) containing 1 μg of coelenterazine (manufactured by JNC) or its analogues. The luminescence activity was measured with a luminometer (manufactured by Atto Co.: AB2200) for 60 seconds. The maximum intensity of luminescence (Imax) and the level integrated for 60 seconds were represented as relative light units (rlu).
The luminescence activity of the purified codon-optimized nanoKAZ domain was measured in accordance with the method described in EXAMPLE 8. […] The results obtained using the purified codon-optimized nanoKAZ as the enzyme solution are in good agreement with the results found by using the culture cell solution as the enzyme solution.

purified nanoKAZ = molecular target: T3, purified nanoKAZ (Oplophorus gracilirostris, UniProt Q9GV45, A31E/A60N/A81I/F95D/I117V/K70R/L54V/L99Q/M102K/N193R/P142E/Q151K/Q38R/Q45L/V71I/Y165I); assay: Emission spectra by purified nanoKAZ using coelenterazine analogues; settings: purified nanoKAZ 3 μg, substrate 5 μg, 22-25° C.
T3 construct: histidine tag (6 His) (N, cleaved yes); ZZ domain (N, cleaved yes); made in house; host or cells: Escherichia coli BL21
T3 sequence (Q9GV45 other isoform, or with tags, fused parts or gaps with the stated changes): as above
Procedure: The luminescence reaction was started by addition of a solution of substrate coelenterazine (5 μg/5 μL) in ethanol to a solution of nanoKAZ (3 μg) in 30 mM Tris-HCl (pH 7.6) containing 500 μl of 10 mM EDTA. The luminescence spectra were measured in a quartz cell with an optical path length of 10 mm, with a fluorescence spectrophotometer (manufactured by JASCO Corp., FP-6500) with the excitation light source turned off to correct for the spectra. The measurement conditions used were as follows: band width: 20 nm, response: 0.5 second, scan speed: 2000 nm/min at 22-25° C. The maximum intensity of luminescence (λmax, nm) and half bandwidth (nm) were determined from the luminescence spectra measured, which are summarized in TABLE 8.

Molecule	luminescence pattern [1]	Relative luminescence activity integrated (1 min) [1]	Relative maximum luminescence intensity (Imax) [1]	Maximum luminescence intensity (Imax) [2]	Relative luminescence activity integrated (1 min) [2]	Half bandwidth FWHM (purified nanoKAZ)	Maximum wavelength λmax (purified nanoKAZ)	activity relative to furimazine ([1]; higher than that of furimazine)
O=c1c(Cc2cccc(O)c2)nc2c(Cc3ccccc3)[nH]c(-c3ccc(O)cc3)cn1-2 [3iso-Coelenterazine]	did not show the rapid-decay luminescence patterns	1.4	1.5	1.1	0.9	75 nm	460 nm	–
Cc1cccc(Cc2nc3c(Cc4ccccc4)[nH]c(-c4ccc(O)cc4)cn-3c2=O)c1 [3me-Coelenterazine]	–	7.9	11.5	10.3	4.2	73 nm	458 nm	–
COc1cccc(Cc2nc3c(Cc4ccccc4)[nH]c(-c4ccc(O)cc4)cn-3c2=O)c1 [3meo-Coelenterazine]	–	8.2	11.6	11.1	6.6	71 nm	458 nm	–
Oc1ccc(Cc2nc3c(Cc4ccccc4)nc(-c4ccc(O)cc4)cn3c2O)cc1 [Coelenterazine (CTZ), Coelenterazine]	–	1.0	1.0	1.0	1.0	73 nm	457 nm	–
O=c1c(Cc2ccco2)nc2c(Cc3ccccc3)[nH]c(-c3ccccc3)cn1-2 [Furimazine]	did not show the rapid-decay luminescence patterns	5.3	4.8	6.8	5.5	73 nm	452 nm	–
O=c1c(Cc2ccc(C(F)(F)F)cc2)nc2c(Cc3ccccc3)[nH]c(-c3ccc(O)cc3)cn1-2 [cf3-Coelenterazine]	–	2.4	5.2	4.7	1.4	71 nm	454 nm	–
Oc1ccc(-c2cn3c(O)c(Cc4ccccc4)nc3c(Cc3ccccc3)n2)cc1 [h-Coelenterazine]	–	11.1	17.1	19.7	12.5	71 nm	455 nm	–
Cc1ccc(Cc2nc3c(Cc4ccccc4)[nH]c(-c4ccc(O)cc4)cn-3c2=O)cc1 [me-Coelenterazine]	–	3.0	5.2	4.2	1.3	75 nm	460 nm	–
COc1ccc(Cc2nc3c(Cc4ccccc4)[nH]c(-c4ccc(O)cc4)cn-3c2=O)cc1 [meo-Coelenterazine]	–	6.3	8.9	7.7	3.4	73 nm	458 nm	–
bis-Coelenterazine	did not show the rapid-decay luminescence patterns; also recorded: continuous emission without decay of luminescence	11.5	10.8	13.5	10.1	73 nm	453 nm	at least 2 fold
et-Coelenterazine	–	2.8	4.4	2.4	0.5	75 nm	458 nm	–
i-Coelenterazine	–	2.0	3.3	2.9	0.8	73 nm	457 nm	–
n-Coelenterazine	–	3.3	4.9	4.1	1.2	71 nm	454 nm	–
αmeh-Coelenterazine	–	0.1	0.1	0.1	0.1	73 nm	462 nm	–
